Experimental data as given in ChEMBL document CHEMBL1201862, “PubChem BioAssay data set” (2004).
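All cell lines were grown in 96-well plates and treated with compound for 48 hours. At the GI50, growth is halved.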 Activity calls are given as the source filed them. Rule as the data show it: active = GI50 up to about 1.1 µM and inactive = higher.

Experiments:
Experiment in all cases: NCI tumour cell line growth inhibition, 48 h
CCRF-CEM = system: CCRF-CEM
HCC 2998 = system: HCC 2998
HL-60 = system: HL-60
HOP-92 = system: HOP-92
HT-29 = system: HT-29
IGROV-1 = system: IGROV-1
MOLT-4 = system: MOLT-4
NCI-H226 = system: NCI-H226
RPMI-8226 = system: RPMI-8226
RXF 393 = system: RXF 393
SF-295 = system: SF-295
SK-MEL-5 = system: SK-MEL-5
SK-OV-3 = system: SK-OV-3
SN12C = system: SN12C
SR = system: SR
U-251 = system: U-251
UACC-257 = system: UACC-257
UO-31 = system: UO-31

Structure (SMILES)	GI50 (CCRF-CEM)	GI50 (HCC 2998)	GI50 (HL-60)	GI50 (HOP-92)	GI50 (HT-29)	GI50 (IGROV-1)	GI50 (MOLT-4)	GI50 (NCI-H226)	GI50 (RPMI-8226)	GI50 (RXF 393)	GI50 (SF-295)	GI50 (SK-MEL-5)	GI50 (SK-OV-3)	GI50 (SN12C)	GI50 (SR)	GI50 (U-251)	GI50 (UACC-257)	GI50 (UO-31)
O=C1C2Nc3ccccc3SC2C(=O)N1c1cccc([N+](=O)[O-])c1 (stereo not drawn)	86.7 µM (inactive)	10.7 µM (inactive)	> 100 µM (inactive)	> 100 µM (inactive)	> 92.3 µM (inactive)	> 100 µM (inactive)	51.8 µM (inactive)	> 86.9 µM (inactive)	> 100 µM (inactive)	> 100 µM (inactive)	> 74.5 µM (inactive)	> 100 µM (inactive)	> 100 µM (inactive)	> 86.9 µM (inactive)	> 100 µM (inactive)	> 100 µM (inactive)	> 100 µM (inactive)	> 90.2 µM (inactive)
Nc1ccc(C(=O)/C=C/c2ccccc2O)cc1	> 100 µM (inactive)	> 100 µM (inactive)	> 100 µM (inactive)	–	> 100 µM (inactive)	> 100 µM (inactive)	> 100 µM (inactive)	> 100 µM (inactive)	–	> 100 µM (inactive)	> 100 µM (inactive)	> 100 µM (inactive)	> 100 µM (inactive)	> 100 µM (inactive)	> 100 µM (inactive)	> 100 µM (inactive)	> 100 µM (inactive)	> 100 µM (inactive)
CC(=O)CC(=O)ON(C)C(C)=O	> 100 µM (inactive)	> 100 µM (inactive)	> 100 µM (inactive)	–	> 100 µM (inactive)	> 100 µM (inactive)	> 100 µM (inactive)	> 100 µM (inactive)	> 100 µM (inactive)	> 100 µM (inactive)	> 100 µM (inactive)	> 100 µM (inactive)	> 100 µM (inactive)	> 100 µM (inactive)	> 100 µM (inactive)	> 100 µM (inactive)	7.69 µM (inactive)	> 100 µM (inactive)
O=C(O)c1ccc(O)c(/N=N/c2cc(S(=O)(=O)O)c3ccccc3c2O)c1	–	> 100 µM (inactive)	> 100 µM (inactive)	> 100 µM (inactive)	50.7 µM (inactive)	45.1 µM (inactive)	> 100 µM (inactive)	> 100 µM (inactive)	> 100 µM (inactive)	> 100 µM (inactive)	> 10 µM (inactive)	> 100 µM (inactive)	> 10 µM (inactive)	> 100 µM (inactive)	> 100 µM (inactive)	> 100 µM (inactive)	> 10 µM (inactive)	> 100 µM (inactive)
CCOc1ccc(NC(=O)CC2SC(Nc3ccc(C)cc3)=NC2=O)cc1 (stereo not drawn)	29.2 µM (inactive)	–	–	–	> 100 µM (inactive)	> 100 µM (inactive)	35.2 µM (inactive)	–	–	> 100 µM (inactive)	> 100 µM (inactive)	> 100 µM (inactive)	> 100 µM (inactive)	> 100 µM (inactive)	50.9 µM (inactive)	> 100 µM (inactive)	> 100 µM (inactive)	> 100 µM (inactive)
CN(C)CC/[N+]([O-])=C(/c1ccccc1)C12CC3CC(CC(C3)C1)C2	15.8 µM (inactive)	22.2 µM (inactive)	11.8 µM (inactive)	14.1 µM (inactive)	11 µM (inactive)	18.5 µM (inactive)	16.7 µM (inactive)	12.5 µM (inactive)	17.7 µM (inactive)	18.2 µM (inactive)	14 µM (inactive)	17.5 µM (inactive)	17.1 µM (inactive)	17.2 µM (inactive)	16.2 µM (inactive)	16 µM (inactive)	15.9 µM (inactive)	11.9 µM (inactive)
C=C(C(=C)N1N=NC2C3CCC(C3)C21)N1N=NC2C3CCC(C3)C21 (stereo not drawn)	24.9 µM (inactive)	> 100 µM (inactive)	16.9 µM (inactive)	> 100 µM (inactive)	> 100 µM (inactive)	> 100 µM (inactive)	41.1 µM (inactive)	–	–	> 100 µM (inactive)	> 100 µM (inactive)	> 100 µM (inactive)	–	> 100 µM (inactive)	38.7 µM (inactive)	> 100 µM (inactive)	> 100 µM (inactive)	> 100 µM (inactive)
O=C1/C(=C/c2ccccc2)CN(C(=O)OCC(Cl)(Cl)Cl)C/C1=C\c1ccccc1	1.71 µM (inactive)	–	0.897 µM (active)	–	1.6 µM (inactive)	3.54 µM (inactive)	2.51 µM (inactive)	–	0.0394 µM (active)	1.68 µM (inactive)	1.83 µM (inactive)	1.55 µM (inactive)	7.48 µM (inactive)	1.84 µM (inactive)	2.07 µM (inactive)	1.68 µM (inactive)	2.09 µM (inactive)	3.52 µM (inactive)
O=C1c2cccc(O)c2C(=O)c2c(O)cccc21 [DANTHRON]	> 100 µM (inactive)	88.7 µM (inactive)	–	> 100 µM (inactive)	35.8 µM (inactive)	> 100 µM (inactive)	40.1 µM (inactive)	> 100 µM (inactive)	50.7 µM (inactive)	92.5 µM (inactive)	55.6 µM (inactive)	–	> 100 µM (inactive)	> 100 µM (inactive)	43.3 µM (inactive)	69.3 µM (inactive)	85.1 µM (inactive)	> 100 µM (inactive)
CNS(=O)(=O)NN(C)S(=O)(=O)c1ccc2ccccc2c1	> 100 µM (inactive)	> 100 µM (inactive)	> 100 µM (inactive)	–	> 100 µM (inactive)	> 100 µM (inactive)	> 100 µM (inactive)	> 100 µM (inactive)	> 100 µM (inactive)	> 100 µM (inactive)	> 100 µM (inactive)	> 100 µM (inactive)	> 100 µM (inactive)	> 100 µM (inactive)	> 100 µM (inactive)	> 100 µM (inactive)	> 100 µM (inactive)	> 100 µM (inactive)
Cc1[nH]c2ccccc2c1C1Cc2ccccc2N1C(=O)/C=C/C=C/c1ccccc1 (stereo not drawn)	58.2 µM (inactive)	> 100 µM (inactive)	27.5 µM (inactive)	> 100 µM (inactive)	> 100 µM (inactive)	> 100 µM (inactive)	12.7 µM (inactive)	> 100 µM (inactive)	> 100 µM (inactive)	> 100 µM (inactive)	> 100 µM (inactive)	> 100 µM (inactive)	> 100 µM (inactive)	> 100 µM (inactive)	> 100 µM (inactive)	> 100 µM (inactive)	33 µM (inactive)	> 100 µM (inactive)
CC(CC(=O)Nc1ccc(NC(=O)CC(C)/N=N\C(N)=O)cc1)/N=N\C(N)=O (stereo not drawn)	> 100 µM (inactive)	> 100 µM (inactive)	> 100 µM (inactive)	> 100 µM (inactive)	> 100 µM (inactive)	> 100 µM (inactive)	> 100 µM (inactive)	> 100 µM (inactive)	> 100 µM (inactive)	> 100 µM (inactive)	> 100 µM (inactive)	> 100 µM (inactive)	> 100 µM (inactive)	> 100 µM (inactive)	22.8 µM (inactive)	> 100 µM (inactive)	> 100 µM (inactive)	> 100 µM (inactive)
CCOC(=O)c1cn2c([nH]c3ccccc32)c(C#N)c1=O	52.4 µM (inactive)	> 100 µM (inactive)	25.8 µM (inactive)	> 100 µM (inactive)	> 100 µM (inactive)	> 100 µM (inactive)	> 100 µM (inactive)	> 100 µM (inactive)	–	> 100 µM (inactive)	> 100 µM (inactive)	> 100 µM (inactive)	> 100 µM (inactive)	> 100 µM (inactive)	> 100 µM (inactive)	> 100 µM (inactive)	> 100 µM (inactive)	98.2 µM (inactive)
COc1ccc2cc3nc(O)cc(O)c3cc2c1OC	> 100 µM (inactive)	> 100 µM (inactive)	> 100 µM (inactive)	> 100 µM (inactive)	> 100 µM (inactive)	> 100 µM (inactive)	> 100 µM (inactive)	> 100 µM (inactive)	> 100 µM (inactive)	> 100 µM (inactive)	> 100 µM (inactive)	–	–	> 100 µM (inactive)	> 100 µM (inactive)	> 100 µM (inactive)	> 100 µM (inactive)	> 100 µM (inactive)
COc1ccc(C2=NNC(=O)OC2c2ccccc2)cc1 (stereo not drawn)	48.3 µM (inactive)	34.1 µM (inactive)	67.5 µM (inactive)	43.6 µM (inactive)	38 µM (inactive)	> 100 µM (inactive)	43.8 µM (inactive)	34.3 µM (inactive)	> 100 µM (inactive)	38 µM (inactive)	22.4 µM (inactive)	–	–	> 100 µM (inactive)	55.2 µM (inactive)	> 100 µM (inactive)	28.9 µM (inactive)	> 100 µM (inactive)
COC1CC(n2cnc3c(N)ncnc32)OC1CO (stereo not drawn)	56 µM (inactive)	> 100 µM (inactive)	> 100 µM (inactive)	> 100 µM (inactive)	> 100 µM (inactive)	> 100 µM (inactive)	> 100 µM (inactive)	> 100 µM (inactive)	> 100 µM (inactive)	–	> 100 µM (inactive)	> 100 µM (inactive)	–	–	> 100 µM (inactive)	> 100 µM (inactive)	> 100 µM (inactive)	> 100 µM (inactive)
CCCC(=O)N[C@@H](Cc1cc(I)c(O)c(I)c1)C(=O)NCCCNCCCCNCCCNC(=O)[C@@H](N)CCCN=C(N)N	> 100 µM (inactive)	42.3 µM (inactive)	33.7 µM (inactive)	–	> 100 µM (inactive)	29 µM (inactive)	71.6 µM (inactive)	> 100 µM (inactive)	40.6 µM (inactive)	> 100 µM (inactive)	> 10 µM (inactive)	36.6 µM (inactive)	–	> 100 µM (inactive)	> 100 µM (inactive)	> 100 µM (inactive)	> 100 µM (inactive)	29.8 µM (inactive)
